Experimental data published in patent publication US10538555B2, “Macrocyclic inhibitors of the PD-1/PD-L1 and CD80(B7-1)/PD-L1 protein/protein interactions” (BRISTOL-MYERS SQUIBB COMPANY, priority 2014, dated 2020).
Like-named read-outs stand apart in the source and are kept apart here. Where a SMILES comes first, the peptide text is derived from it. Bridges are numbered along the chain shown (N, C = ends). [ ]: non-standard residue; d: D form. Trp(1-CH2COOH) = N[C@@H](Cc1cn(CC(=O)O)c2ccccc12)C(=O)O; NMeW = CN[C@@H](Cc1c[nH]c2ccccc12)C(=O)O; Bta = N[C@@H](Cc1csc2ccccc12)C(=O)O; Hyp = O=C(O)[C@@H]1C[C@@H](O)CN1; NMeNle = CCCC[C@H](NC)C(=O)O; NMeA = CN[C@@H](C)C(=O)O; Dab = NCC[C@H](N)C(=O)O; Dap = NC[C@H](N)C(=O)O; Sar = CNCC(=O)O

Target: T1, Human PD-L1/PD-1 (Homo sapiens, UniProt Q9NZQ7)
T1 construct: TVMV protease cleavage site (C); made in house; host or cells: HEK293T cells
T1 sequence (Q9NZQ7 with tags, fused parts or gaps): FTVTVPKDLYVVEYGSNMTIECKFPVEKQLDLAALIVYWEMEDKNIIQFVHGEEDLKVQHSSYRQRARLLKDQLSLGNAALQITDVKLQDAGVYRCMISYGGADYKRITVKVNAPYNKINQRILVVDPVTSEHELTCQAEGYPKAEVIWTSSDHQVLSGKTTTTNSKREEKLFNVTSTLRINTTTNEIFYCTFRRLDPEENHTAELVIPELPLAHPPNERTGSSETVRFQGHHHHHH
Assay: HTRF Human PD-L1/PD-1 binding assay (PD-1-Ig/PD-L1-His)
Details: PD-L1-His 10 nM, PD-1-Ig 20 nM
Method in brief: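 HTRF read-out (665/620 nm ratio) after 30 min equilibration with Eu-cryptate anti-Ig mAb (1 nM) and APC anti-His mAb (20 nM). Peptides preincubated 15 min with PD-L1-His (10 nM), then PD-1-Ig (20 nM) added for 15 min.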

[1] = class symbol, read-out: HTRF Human PD-L1/PD-1 Binding Assay IC50 Range

SMILES | IC50 [1] | IC50 (read-out: HTRF Human PD-L1/PD-1 Binding Assay IC50)
CCCC[C@H]1C(=O)N(C)[C@@H](CCCC)C(=O)N[C@@H](CCC(=O)O)C(=O)N[C@H](C(=O)NCC(N)=O)CSCC(=O)N[C@@H](Cc2ccc(O)cc2)C(=O)N(C)[C@@H](C)C(=O)N[C@@H](CC(N)=O)C(=O)N2CCC[C@H]2C(=O)N[C@@H](CO)C(=O)N[C@@H](CC(C)C)C(=O)N2C[C@H](O)C[C@H]2C(=O)N[C@@H](Cc2c[nH]c3ccccc23)C(=O)N[C@@H](CCC(=O)O)C(=O)N[C@@H](Cc2c[nH]c3ccccc23)C(=O)N1C [Example 5216] ({CH2CO}-Y[NMeA]NPSL[Hyp]WEW[NMeNle][NMeNle]ECG-NH2; thioether N-14) | 1 to 9.9 nM | –
CCCC[C@H]1C(=O)N(C)[C@@H](CCCC)C(=O)N[C@@H](CCC(=O)O)C(=O)N[C@H](C(=O)NCC(N)=O)CSCC(=O)N[C@@H](Cc2ccc(O)cc2)C(=O)N(C)[C@@H](C)C(=O)N[C@@H](CC(=O)O)C(=O)N2CCC[C@H]2C(=O)N[C@@H](Cc2c[nH]cn2)C(=O)N[C@@H](CCC(N)=O)C(=O)N2C[C@H](O)C[C@H]2C(=O)N[C@@H](Cc2c[nH]c3ccccc23)C(=O)N[C@@H](CCN)C(=O)N[C@@H](Cc2c[nH]c3ccccc23)C(=O)N1C [Example 5218] ({CH2CO}-Y[NMeA]DPHQ[Hyp]W[Dab]W[NMeNle][NMeNle]ECG-NH2; thioether N-14) | 10 to 99.9 nM | –
CCCC[C@H]1C(=O)N(C)[C@@H](CCCC)C(=O)NCC(=O)N[C@H](C(=O)NCC(N)=O)CSCC(=O)N[C@@H](Cc2ccc(O)cc2)C(=O)N(C)[C@@H](C)C(=O)N[C@@H](CC(N)=O)C(=O)N2CCC[C@H]2C(=O)NCC(=O)N[C@@H](CCC(N)=O)C(=O)N2C[C@H](O)C[C@H]2C(=O)N[C@@H](Cc2c[nH]c3ccccc23)C(=O)NCC(=O)N[C@@H](Cc2c[nH]c3ccccc23)C(=O)N1C [Example 5219] ({CH2CO}-Y[NMeA]NPGQ[Hyp]WGW[NMeNle][NMeNle]GCG-NH2; thioether N-14) | 1 to 9.9 nM | –
CCCC[C@H]1C(=O)N(C)[C@@H](CCCC)C(=O)N[C@@H](CN)C(=O)N[C@H](C(=O)NCC(N)=O)CSCC(=O)N[C@@H](Cc2ccc(O)cc2)C(=O)N(C)[C@@H](C)C(=O)N[C@@H](CC(=O)O)C(=O)N2CCC[C@H]2C(=O)N[C@@H](Cc2c[nH]cn2)C(=O)N[C@@H](CCC(=O)O)C(=O)N2C[C@H](O)C[C@H]2C(=O)N[C@@H](Cc2c[nH]c3ccccc23)C(=O)N[C@@H](CCN)C(=O)N[C@@H](Cc2cn(CC(=O)O)c3ccccc23)C(=O)N1C [Example 5220] | 100 to 990 nM | –
CCCC[C@H]1C(=O)N(C)[C@@H](CCCC)C(=O)N[C@@H](CCC(=O)O)C(=O)N[C@H](C(=O)NCC(N)=O)CSCC(=O)N[C@@H](Cc2ccc(O)cc2)C(=O)N(C)[C@@H](C)C(=O)N[C@@H](CC(=O)O)C(=O)N2CCC[C@H]2C(=O)N[C@@H](CO)C(=O)N[C@@H](CCC(N)=O)C(=O)N2C[C@H](O)C[C@H]2C(=O)N[C@@H](Cc2c[nH]c3ccccc23)C(=O)N[C@@H](CCN)C(=O)N[C@@H](Cc2c[nH]c3ccccc23)C(=O)N1C [Example 5221] ({CH2CO}-Y[NMeA]DPSQ[Hyp]W[Dab]W[NMeNle][NMeNle]ECG-NH2; thioether N-14) | 1 to 9.9 nM | –
CCCC[C@H]1C(=O)N(C)[C@@H](CCCC)C(=O)N[C@@H](CN)C(=O)N[C@H](C(=O)NCC(N)=O)CSCC(=O)N[C@@H](Cc2ccc(O)cc2)C(=O)N(C)[C@@H](C)C(=O)N[C@@H](CC(N)=O)C(=O)N2CCC[C@H]2C(=O)N[C@@H](Cc2c[nH]cn2)C(=O)N[C@@H](CCC(N)=O)C(=O)N2C[C@H](O)C[C@H]2C(=O)N[C@@H](Cc2c[nH]c3ccccc23)C(=O)N[C@@H](CCN)C(=O)N[C@@H](Cc2cn(CC(=O)O)c3ccccc23)C(=O)N1C [Example 5222] ({CH2CO}-Y[NMeA]NPHQ[Hyp]W[Dab][Trp(1-CH2COOH)][NMeNle][NMeNle][Dap]CG-NH2; thioether N-14) | – | 1000 nM
CCCC[C@H]1C(=O)N(C)[C@@H](CCCC)C(=O)N[C@@H](CCC(=O)O)C(=O)N[C@H](C(=O)NCC(N)=O)CSCC(=O)N[C@@H](Cc2ccc(O)cc2)C(=O)N(C)[C@@H](C)C(=O)N[C@@H](CC(N)=O)C(=O)N2CCC[C@H]2C(=O)N[C@@H](Cc2c[nH]cn2)C(=O)N[C@@H](CCC(N)=O)C(=O)N2C[C@H](O)C[C@H]2C(=O)N[C@@H](Cc2c[nH]c3ccccc23)C(=O)N[C@@H](CCN)C(=O)N[C@@H](Cc2c[nH]c3ccccc23)C(=O)N1C [Example 5223] ({CH2CO}-Y[NMeA]NPHQ[Hyp]W[Dab]W[NMeNle][NMeNle]ECG-NH2; thioether N-14) | 1 to 9.9 nM | –
CCCC[C@H]1C(=O)N(C)[C@@H](CCCC)C(=O)N[C@@H](CCC(=O)O)C(=O)N[C@H](C(=O)NCC(N)=O)CSCC(=O)N[C@@H](Cc2ccc(O)cc2)C(=O)N(C)[C@@H](C)C(=O)N[C@@H](CC(=O)O)C(=O)N2CCC[C@H]2C(=O)N[C@@H](CN)C(=O)N[C@@H](CCC(=O)O)C(=O)N2C[C@H](O)C[C@H]2C(=O)N[C@@H](Cc2c[nH]c3ccccc23)C(=O)N[C@@H](CCN)C(=O)N[C@@H](Cc2c[nH]c3ccccc23)C(=O)N1C [Example 5224] ({CH2CO}-Y[NMeA]DP[Dap]E[Hyp]W[Dab]W[NMeNle][NMeNle]ECG-NH2; thioether N-14) | 1 to 9.9 nM | –
CCCC[C@H]1C(=O)N(C)[C@@H](CCCC)C(=O)N[C@@H](CC(C)C)C(=O)N[C@H](C(=O)NCC(N)=O)CSCC(=O)N[C@@H](Cc2ccc(O)cc2)C(=O)N(C)[C@@H](C)C(=O)N[C@@H](CC(N)=O)C(=O)N(C)CC(=O)N[C@@H](Cc2cnc[nH]2)C(=O)N[C@@H](CCC(=O)O)C(=O)N2C[C@H](O)C[C@H]2C(=O)N[C@@H](Cc2c[nH]c3ccccc23)C(=O)N[C@@H](CCN)C(=O)N[C@@H](Cc2csc3ccccc23)C(=O)N1C [Example 5225] ({CH2CO}-Y[NMeA]N[Sar]HE[Hyp]W[Dab][Bta][NMeNle][NMeNle]LCG-NH2; thioether N-14) | 1 to 9.9 nM | –
CCCC[C@H]1C(=O)N(C)[C@@H](CCCC)C(=O)N[C@@H](CN)C(=O)N[C@H](C(=O)NCC(N)=O)CSCC(=O)N[C@@H](Cc2ccc(O)cc2)C(=O)N(C)[C@@H](C)C(=O)N[C@@H](CC(=O)O)C(=O)N2CCC[C@H]2C(=O)N[C@@H](CN)C(=O)N[C@@H](CCC(N)=O)C(=O)N2C[C@H](O)C[C@H]2C(=O)N[C@@H](Cc2c[nH]c3ccccc23)C(=O)N[C@@H](CO)C(=O)N[C@@H](Cc2cn(CC(=O)O)c3ccccc23)C(=O)N1C [Example 5226] ({CH2CO}-Y[NMeA]DP[Dap]Q[Hyp]WS[Trp(1-CH2COOH)][NMeNle][NMeNle][Dap]CG-NH2; thioether N-14) | 1 to 9.9 nM | –
CCCC[C@H]1C(=O)N(C)[C@@H](CCCC)C(=O)N[C@@H](CN)C(=O)N[C@H](C(=O)NCC(N)=O)CSCC(=O)N[C@@H](Cc2ccc(O)cc2)C(=O)N(C)[C@@H](C)C(=O)N[C@@H](CC(=O)O)C(=O)N2CCC[C@H]2C(=O)N[C@@H](CN)C(=O)N[C@@H](CC(C)C)C(=O)N2C[C@H](O)C[C@H]2C(=O)N[C@@H](Cc2c[nH]c3ccccc23)C(=O)N[C@@H](CO)C(=O)N[C@@H](Cc2cn(CC(=O)O)c3ccccc23)C(=O)N1C [Example 5227] ({CH2CO}-Y[NMeA]DP[Dap]L[Hyp]WS[Trp(1-CH2COOH)][NMeNle][NMeNle][Dap]CG-NH2; thioether N-14) | 1 to 9.9 nM | –
CCCC[C@H]1C(=O)N(C)[C@@H](CCCC)C(=O)N[C@@H](CC(C)C)C(=O)N[C@H](C(=O)NCC(N)=O)CSCC(=O)N[C@@H](Cc2ccc(O)cc2)C(=O)N(C)[C@@H](C)C(=O)N[C@@H](CC(N)=O)C(=O)N2CCC[C@H]2C(=O)N[C@@H](Cc2c[nH]cn2)C(=O)N[C@@H](CCCCNC(C)=O)C(=O)N2C[C@H](O)C[C@H]2C(=O)N[C@@H](Cc2c[nH]c3ccccc23)C(=O)N[C@@H](CCN)C(=O)N[C@@H](Cc2c[nH]c3ccccc23)C(=O)N1C [Example 5228] ({CH2CO}-Y[NMeA]NPHK(Ac)[Hyp]W[Dab]W[NMeNle][NMeNle]LCG-NH2; thioether N-14) | 1 to 9.9 nM | –
CCCC[C@H]1C(=O)N[C@@H](CN)C(=O)N[C@H](C(=O)NCC(N)=O)CSCC(=O)N[C@@H](Cc2ccc(O)cc2)C(=O)N(C)[C@@H](C)C(=O)N[C@@H](CC(=O)O)C(=O)N2CCC[C@H]2C(=O)N[C@@H](Cc2c[nH]cn2)C(=O)N[C@@H](CCC(=O)O)C(=O)N2C[C@H](O)C[C@H]2C(=O)N[C@@H](Cc2c[nH]c3ccccc23)C(=O)N[C@@H](CCN)C(=O)N[C@@H](Cc2c[nH]c3ccccc23)C(=O)N(C)[C@@H](Cc2c[nH]c3ccccc23)C(=O)N1C [Example 5229] ({CH2CO}-Y[NMeA]DPHE[Hyp]W[Dab]W[NMeW][NMeNle][Dap]CG-NH2; thioether N-14) | 1 to 9.9 nM | –
CCCC[C@H]1C(=O)N(C)[C@@H](CCCC)C(=O)N[C@@H](CCC(=O)O)C(=O)N[C@H](C(=O)NCC(N)=O)CSCC(=O)N[C@@H](Cc2ccc(O)cc2)C(=O)N(C)[C@@H](C)C(=O)N[C@@H](CC(=O)O)C(=O)N2CCC[C@H]2C(=O)N[C@@H](Cc2cnc[nH]2)C(=O)N[C@@H](CCC(=O)O)C(=O)N2C[C@H](O)C[C@H]2C(=O)N[C@@H](Cc2c[nH]c3ccccc23)C(=O)N[C@@H](CO)C(=O)N[C@@H](Cc2c[nH]c3ccccc23)C(=O)N1C [Example 5230] ({CH2CO}-Y[NMeA]DPHE[Hyp]WSW[NMeNle][NMeNle]ECG-NH2; thioether N-14) | 1 to 9.9 nM | –
CCCC[C@H]1C(=O)N(C)[C@@H](CCCC)C(=O)N[C@@H](CN)C(=O)N[C@H](C(=O)NCC(N)=O)CSCC(=O)N[C@@H](Cc2ccc(O)cc2)C(=O)N(C)[C@@H](C)C(=O)N[C@@H](CC(N)=O)C(=O)N2CCC[C@H]2C(=O)N[C@@H](CN)C(=O)N[C@@H](CCC(=O)O)C(=O)N2C[C@H](O)C[C@H]2C(=O)N[C@@H](Cc2c[nH]c3ccccc23)C(=O)N[C@@H](CO)C(=O)N[C@@H](Cc2cn(CC(=O)O)c3ccccc23)C(=O)N1C [Example 5231] ({CH2CO}-Y[NMeA]NP[Dap]E[Hyp]WS[Trp(1-CH2COOH)][NMeNle][NMeNle][Dap]CG-NH2; thioether N-14) | 1 to 9.9 nM | –
